Experimental data as given in doi:10.1101/2025.10.05.680433v1 (biorxiv, 2025).

Legend:
Experiment in all cases: ITC
Type in all cases: binding
[1] = biological target: IGP1^ECD (Arabidopsis thaliana, UniProt F4I3K3, W220A); settings: 10 mM Bis-Tris pH 6.0, 100 mM NaCl, 25 °C
[2] = biological target: IGP1^ECD (Arabidopsis thaliana, UniProt F4I3K3, C591A/C592A); settings: 10 mM Bis-Tris pH 6.0, 100 mM NaCl, 25 °C
[3] = biological target: IGP1^ECD (Arabidopsis thaliana, UniProt F4I3K3, C591D/C592D); settings: 10 mM Bis-Tris pH 6.0, 100 mM NaCl, 25 °C
[4] = biological target: IGP1^ECD (Arabidopsis thaliana, UniProt F4I3K3); settings: 10 mM Bis-Tris pH 6.0, 100 mM NaCl, 25 °C; LRR3-5 groove; 1:1 complex in crystal

Kd [1] [µM]	Kd [2] [µM]	Kd [3] [µM]	Kd [4] [µM]	Compound
~18.6	~2.25	~17.9		OC[C@H]1O[C@@H](O[C@H]2[C@H](O)[C@@H](O)[C@H](O[C@H]3[C@H](O)[C@@H](O)[C@H](O[C@H]4[C@H](O)[C@@H](O)C(O)O[C@@H]4CO)O[C@@H]3CO)O[C@@H]2CO)[C@H](O)[C@@H](O)[C@@H]1O (stereo partly shown) [CEL4, cellotetraose]
			~1.61	OC[C@H]1O[C@@H](O[C@H]2[C@H](O)[C@@H](O)[C@H](O[C@H]3[C@H](O)[C@@H](O)C(O)O[C@@H]3CO)O[C@@H]2CO)[C@H](O)[C@@H](O)[C@@H]1O (stereo partly shown) [CEL3, cellotriose]
